The target of data set [1] is T1, inosine-guanosine kinase derived from Exiguobacterium acetylicum (Exiguobacterium acetylicum, UniProt O24767). Nature of the data set: Effect of metal ions on the purified kinase. It counts as biochemical. As to conditions: for inhibition of the enzyme by metal ions (in words): 1 mM metal ions; for Relative activity: Metal salts (1 mM) present in the reaction mixture, not added = 100. The procedure: (§1) Fifty microliter of this reaction mixture was used as a basic composition and the reaction was carried out at 30° C. for 10 minutes. The enzyme had the following properties.

Data set [2] has as its target T1, inosine-guanosine kinase derived from Exiguobacterium acetylicum. Briefly: Phosphate donor specificity (nucleoside triphosphates) of the purified kinase. It counts as biochemical. As to conditions: for Relative activity: Nucleoside triphosphate (5 mM) instead of ATP, ATP = 100; for use as phosphate donor (in words): 5 mM nucleoside triphosphate. The method, then:
as §1
The reaction was performed by using 5 mM of each of various nucleoside triphosphates instead of ATP, and the possible phosphate donors were examined.

For data set [3] the target is unchanged. Briefly: Metal requirement of the purified kinase. It counts as biochemical. Particulars: for Relative activity: Metal salts (5 mM) instead of magnesium chloride, MgCl2 = 100; for metal requirement (in words): metal ions replacing magnesium chloride. The method, then: as §1
The reaction was performed by changing magnesium chloride to various metal ions in the reaction solution.

The target is the same in data set [4]. Nature of the data set: Substrate specificity (nucleoside as phosphate receptor) of the purified kinase. It counts as biochemical. Particulars: for use as phosphate receptor (in words): 0.5 mM nucleoside; for Relative activity: Nucleoside (0.5 mM) instead of guanosine, [γ-32P]-ATP, guanosine = 100. The method, then: as §1
The reaction was performed by using 0.5 mM of each of various nucleosides instead of guanosine and [Υ-^32P]-ATP instead of ATP. The thus-formed nucleoside 5′-phosphate was measured.

Data set [5] in a line: pH and temperature optimum and stability of the purified kinase. It counts as biochemical, Exiguobacterium acetylicum. The procedure:
as §1
The reaction was performed by changing the buffer to 100 mM of sodium acetate-acetic acid buffer (pH 4.2-5.6), 2-morphorinoethanesulfonic acid (hereinafter referred to as “MES”)-sodium hydroxide buffer (pH 5.4-6.3), 3-morphorinopropanesulfonic acid (MOPS)-sodium hydroxide buffer (pH 6.3-7.2), Tris-hydrochloride buffer (pH 7.2-8.8), cyclohexylaminopropanesulfonic acid (hereinafter referred to as “CAPS”)- sodium hydroxide buffer (pH 8.8-10.4) or glycine-sodium hydroxide buffer (pH 10.3-11.0). The optimum pH was between 7.7 and 9.9.
The enzyme was treated at room temperature for 30 minutes with 250 mM sodium acetate-acetate buffer ([…]), MES-sodium hydroxide buffer (pH 5.4-6.4), MOPS-sodium hydroxide buffer (pH 6.3-7.3), Tris-hydrochloride buffer (pH 7.2-8.8), CAPS-sodium hydroxide buffer (pH 8.9-10.4) or glycine-sodium hydroxide buffer (pH 10.5-13.3), each containing 2.5 mg/ml of bovine- serum albumin, 25 mM potassium chloride, 0.25 mM dithiothreitol and 5% glycerol. Then, the activity of the enzyme was measured. As a result, the activity of the enzyme was stable within the pH range between 6.7 and 12.1
The reaction was performed within the temperature range between 16° C. and 60° C. […]

Substrate in data set [6]: OC[C@H]1O[C@@H](n2cnc3c(O)ncnc32)[C@H](O)[C@@H]1O
Briefly: Km values of the purified kinase. It counts as biochemical, Exiguobacterium acetylicum. Particulars: other: substrate concentration varied; pH 7.5; 30.0 °C. The procedure:
as §1

Substrate in data set [7]: Nc1nc2c(ncn2[C@@H]2O[C@H](CO)[C@@H](O)[C@H]2O)c(=O)[nH]1
Briefly: Km values of the purified kinase. It counts as biochemical, Exiguobacterium acetylicum. As to conditions: other: substrate concentration varied; pH 7.5; 30.0 °C. The method, then:
as §1

Substrate in data set [8]: Nc1ncnc2c1ncn2[C@@H]1O[C@H](COP(=O)(O)OP(=O)(O)OP(=O)(O)O)[C@@H](O)[C@H]1O
Briefly: Km values of the purified kinase. It counts as biochemical, Exiguobacterium acetylicum. Particulars: other: for ATP when guanosine was used as a substrate; pH 7.5; 30.0 °C. The procedure: as §1

As for `[Cl][Hg][Cl]` [HgCl2], in data set [1], the “inhibition of the enzyme by metal ions (in words)” value (“inhibition of the enzyme” below) is listed as “strongly inhibited” and the Relative activity amounted to 22%.
As for `O=c1ccn([C@@H]2O[C@H](COP(=O)(O)OP(=O)(O)OP(=O)(O)O)[C@@H](O)[C@H]2O)c(=O)[nH]1` [uridine triphosphate], in data set [2], the Relative activity came to 4%.
With `O.O.O.O.O.O.[Cl-].[Cl-].[Co+2]` [CoCl2.6H2O], in data set [3], the Relative activity was determined as 36% and the “metal requirement (in words)” value is “the reaction proceeded”. In addition, the Relative activity in data set [1] is 103%.
For the molecule `Nc1nc2c(ncn2[C@@H]2O[C@H](CO)[C@@H](O)[C@H]2O)c(=O)[nH]1` [guanosine], in data set [4], the “use as phosphate receptor (in words)” value is given as “used as a phosphate receptor” and the Relative activity is 100%.
Take `O.O.[Ca+2].[Cl-].[Cl-]` [CaCl2.2H2O]: the Relative activity in data set [3] was 1%; in data set [1], 71%.
With `[Cl][Cd][Cl]` [CdCl2], in data set [1], the “inhibition of the enzyme” value is listed as “also inhibited” and the Relative activity stood at 43%.
Turning to `[Cl-].[Cl-].[Zn+2]` [ZnCl2], the Relative activity in data set [3] amounted to 1%; in data set [1], 58%. In data set [1], the “inhibition of the enzyme” value is recorded as “also inhibited”.
Turning to `O.O.O.O.O.O.O.O=S(=O)([O-])[O-].[Fe+2]` [FeSO4.7H2O], in data set [3], the Relative activity was 24% and the “metal requirement (in words)” value is “the reaction proceeded”. The Relative activity in data set [1] was determined as 95%.
On to `Nc1nc2c(ncn2[C@H]2C[C@H](O)[C@@H](COP(=O)(O)OP(=O)(O)OP(=O)(O)O)O2)c(=O)[nH]1` [2′-deoxyguanosine triphosphate], for which, in data set [2], the “use as phosphate donor (in words)” value is “used as the phosphate donor” and the Relative activity worked out at 61%.
On to `Nc1nc2c(ncn2[C@H]2C[C@H](O)[C@@H](CO)O2)c(=O)[nH]1` [2′-deoxyguanosine], for which, in data set [4], the “use as phosphate receptor (in words)” value is reported as “used as a phosphate receptor” and the Relative activity is given as 4%.
As for `Nc1ncnc2c1ncn2[C@@H]1O[C@H](COP(=O)(O)OP(=O)(O)OP(=O)(O)O)[C@@H](O)[C@H]1O` [adenosine triphosphate], in data set [2], the “use as phosphate donor (in words)” value is “used as the phosphate donor” and the Relative activity worked out at 100%.
On to `O.O.O.O.O.O.[Cl-].[Cl-].[Mg+2]` [MgCl2.6H2O], for which, in data set [3], the Relative activity amounted to 100% and the “metal requirement (in words)” value was “the reaction proceeded”.
As for `O.O.O.O.O.O.O.O=S(=O)([O-])[O-].[Mg+2]` [MgSO4.7H2O], the Relative activity is 107% in data set [3] and 110% in data set [1].
Take `O.O.[Cl][Cu][Cl]` [CuCl2.2H2O]: in data set [1], the “inhibition of the enzyme” value was “strongly inhibited” and the Relative activity is recorded as 25%.
Regarding `OC[C@H]1O[C@@H](n2cnc3c(O)ncnc32)[C@H](O)[C@@H]1O` [inosine], in data set [4], the “use as phosphate receptor (in words)” value is recorded as “used as a phosphate receptor” and the Relative activity came to 5%.
As to `O.O.O.O.[Cl][Mn][Cl]` [MnCl2.4H2O], in data set [3], the Relative activity was determined as 55% and the “metal requirement (in words)” value is “the reaction proceeded”. The Relative activity in data set [1] was determined as 81%.
Regarding `O.O.O.O.O.O.[Cl][Ni][Cl]` [NiCl2.6H2O], the Relative activity in data set [3] stood at 1%; in data set [1], 113%.
As to `Nc1nc2c(ncn2[C@@H]2O[C@H](COP(=O)(O)OP(=O)(O)OP(=O)(O)O)[C@@H](O)[C@H]2O)c(=O)[nH]1` [guanosine triphosphate], in data set [2], the “use as phosphate donor (in words)” value is listed as “used as the phosphate donor” and the Relative activity was 59%.
On the same counts, the results for `Nc1ncnc2c1ncn2[C@H]1C[C@H](O)[C@@H](COP(=O)(O)OP(=O)(O)OP(=O)(O)O)O1` [2′-deoxyadenosine triphosphate] are “used as the phosphate donor” and 71%.
With `Nc1ncnc2c1ncn2[C@H]1C[C@H](O)[C@@H](CO)O1` [2′-deoxyadenosine], the Relative activity in data set [4] was 0%.
As for `[Ba+2].[Cl-].[Cl-]` [BaCl2], the Relative activity in data set [1] turned out to be 106%.
Consider `Nc1ccn([C@@H]2O[C@H](COP(=O)(O)OP(=O)(O)OP(=O)(O)O)[C@@H](O)[C@H]2O)c(=O)n1` [cytidine triphosphate], for which the Relative activity in data set [2] came to 6%.
In the case of `O=c1[nH]c(=O)c2ncn([C@@H]3O[C@H](CO)[C@@H](O)[C@H]3O)c2[nH]1` [xanthosine], in data set [4], the Relative activity is on record as 0%.
The same measure, in the same setting: next, `Nc1ncnc2c1ncn2[C@@H]1O[C@H](CO)[C@@H](O)[C@H]1O` [adenosine]: 0%.

B1: inosine-guanosine kinase derived from Exiguobacterium acetylicum (Exiguobacterium acetylicum) (protein)
chain: MNKIAVIGKVFVDIKGTSFAPLHKDAKNVGDITFSNGGTGRNVAQNLAVLGNEVRFISTVTNDQIGVGVLDELKSYGANVDHVEMLEDHGMGMWLAVMDNEGDLQTSISKQPDAKLLEEAILRQSIYALDGVDAVAIDLDLSVTVLERLIHLCRKMELPLFGVCGHLSVIERNRHLLQGFTGFICSREEAEILSDLSIVTVEDAIHVANELAKKGAPFTVVTMSELGAVYVDRRTATSGHVGTKKVKVVDSTGAGDSFFSAVLSELTQEKSAEEALKLGMKVAAEVIASTENGLVPEMLDALQ
In data set [5] (treatment at 25° C. or lower for 30 minutes), B1 returned a residual activity maintained of no less than 50%. The “temperature at which the enzyme was inactivated” value in data set [5] (treatment for 30 minutes at 4 to 60° C.) is no less than 40 °C. In addition, the figures for the Michaelis-Menten constant (Km) in data set [6], in data set [7] and in data set [8] were 1000 µM, 30 µM and 1600 µM, respectively.

For the origin of these results see patent US6673576B1, “Process for producing nucleic acids” (priority 1995, dated 2004).
